Common to all, as to test: Growth inhibition GI50 in vitro (CCK8/MTT, 72 h)
Holding throughout (assay type): cell-based

Assay [1] deals with NCI-H1781 (HER2 exon 20 G776VC mutation). The following applies: Homo sapiens, NCI-H1781; Table 16; 1000 nM to 0.03 nM serial dilution; read-out: GI50 H1781 (HER2 G776VC).
Another assay deals with H2170 (Her2 amp). The note with it: Homo sapiens, NCI-H2170, H2170, EGFR wt.
The next assay has as its system HCC1954 (Her2 amp). The note with it: Homo sapiens, HCC1954, EGFR wt.
A further assay has as its system ZR-75-30 (Her2 amp). The note with it: Homo sapiens, ZR-75-30, EGFR wt.
Another assay relates to H1993 (Met amp). The note with it: Homo sapiens, NCI-H1993, H1993, EGFR wt. Here is the method: (§1) Human gastric cancer cell line MKN-45 (ATCC) and NSCLC cell line NCI-H1993 (ATCC) were cultured with 1×RPMI1640 complete medium which was supplement with 10% FBS, respectively.
(§2) The suspension cells were collected by centrifugation. The supernatant was discard and the cell pellet was resuspended and counted. Different cell concentrations (5˜10×10^4 cells/mL) were prepared according to the growth cycle of each cell line and then seeded on a 96-well plate (Corning), 100 μL/well. The cells were incubated over night at 37° C., 5% CO2. The compounds were added to the cells on the second day with 2 wells in parallel. The final concentration of organic solvent shall not exceed 1%. The cells were continually incubated for 72 h, and then subjected to MTT assay.
(§3) The present compounds and the reference compounds were dissolved with DMSO (Sigma), respectively. […] The storage concentration of compounds was 10 mM and kept at −20° C. They were diluted by 2 times or 10 times with serial dilution before using.
(§4) Dojindo CCK8 reagent kit was used as MTT assay. […] FC meter was used as microplate reader.
(§5) Adherent cell culture medium was discard and immediately replaced with fresh prepared medium which contains 10% CCK8 reagent (100 μL/well). For the suspension cells, CCK8 was directly added to 10% of the final concentration. The cells were continually incubated for 1˜4 h. When the color of control wells turned to dark yellow, the absorption value was measured at OD450 nm. The cell growth rate was calculated according to the following formula: cell growth rate (%)=100*(T−T0)/(C−T0), T=optical density of drug treatment cell well—optical density of blank control well; T0=optical density of cell well before drug treatment—optical density of blank control well; C=optical density of cell well of solvent control group—optical density of blank control well. […] The experiment was independently repeated 1˜3 times, and subject to biological statistical analysis.
(§6) Growth inhibition assay was conducted in the cell lines shown Table 14 with the different oncogene mutations. Each compound started at 1000 nM as an initial concentration and was diluted by 2 times with serial dilution to 0.03 nM.

In a further assay the test system is MKN-45 (Met amp). The following applies: Homo sapiens, MKN-45, EGFR wt. Here is the method: as §1, §2, §3, §4, §5, §6
The next assay deals with H2228 (EML4-ALK). The note with it: Homo sapiens, NCI-H2228, H2228, EGFR wt.
A further assay has as its system Karpas-299 (NPM-ALK). The following applies: Homo sapiens, Karpas-299, EGFR wt.
For another assay, the system named is Kasumi-1 (Kit N822K). The note with it: Homo sapiens. The procedure:
Kasumi-1 is a leukemia cell line positively expressing c-Kit N822K mutant Abnormal variation of c-Kit often appears in cancer patients. Kasumi-1 cell line was cultured with 1×RPMI1640 complete medium (supplement with 10% FBS).
as §2, §3, §4, §5, §6

Another assay concerns H1581 (FGFR1 amp). The note with it: Homo sapiens, NCI-H1581, H1581, EGFR wt. The procedure: (§7) Human NSCLC cell line NCI-H1581(ATCC) contains FGFR1 gene amplification and high expression. Human gastric cancer cell line SNU-16(ATCC) contains FGFR2 gene amplification and high expression. They were cultured with 1×RPMI1640 complete medium (10% FBS), respectively.
as §2, §3, §4, §5, §6

Another assay concerns SNU-16 (FGFR2 amp). The following applies: Homo sapiens, SNU-16, EGFR wt. Here is the method:
as §7, §2, §3, §4, §5, §6

As to `C=CC(=O)Nc1cc(Nc2cc(Nc3cc(OC)c(Cl)cc3Cl)ncn2)c(OC)cc1N(C)CCN(C)C` [Compound 136, N-(5-(6-(2,4-dichloro-5-methoxyl-phenylamino)-pyrimidin-4-ylamino)-2-((2-dimethylamino-ethyl)-methyl-amino)-4-methoxyl-phenyl)-acrylamide], in [1], the GI50 (in general, the concentration giving 50% growth inhibition) was found to be 7.32 nM.
Regarding `C=CC(=O)Nc1cc(Nc2ncc(Cl)c(Nc3ccc(OCc4ccccn4)c(Cl)c3)n2)c(OC)cc1N(C)CCN(C)C` [Compound 19, N-(5-(5-chloro-4-(3-chloro-4-(pyridin-2-methoxyl)phenylamino)-pyrimidin-2-ylamino)-2-((2-(dimethylamino)ethyl)(methyl)amino)-4-methoxyl-phenyl)-acrylamide], the GI50 in the assay on H2170 (Her2 amp) is 14.6 nM; in the assay with HCC1954 (Her2 amp) it was 312 nM; with ZR-75-30 (Her2 amp), 2.1 nM; with H1993 (Met amp) it was above 1000 nM; in the assay on MKN-45 (Met amp), 500 nM; in the assay on H2228 (EML4-ALK), above 500 nM. The 50% growth inhibitory concentration (GI50) is 500 nM with Karpas-299 (NPM-ALK), above 1000 nM with Kasumi-1 (Kit N822K), above 1000 nM with H1581 (FGFR1 amp) and above 1000 nM in the assay on SNU-16 (FGFR2 amp).
`C=CC(=O)Nc1cc(Nc2cc(Nc3ccc(OCC4CCOCC4)c(Cl)c3)ncn2)c(OC)cc1N(C)CCN(C)C` [Compound 216, N-(5-(6-(3-chloro-4-(tetrahydropyran-4-yl-methoxyl)-phenylamino)-pyrimidin-4-ylamino)-2-((2-dimethylaminoethyl)-methyl-amino)-4-methoxyphenyl)-acrylamide]: in [1], the GI50 is 19.5 nM.
As to `C=CC(=O)Nc1cc(Nc2nccc(-n3ccc4c(OCCOC)cccc43)n2)c(OC)cc1N(C)CCN(C)C` [Compound 205, N-(5-(4-(4-(2-methoxyl-ethoxyl)-1H-indol-1-yl)-pyrimidin-2-ylamino)-2-(2-(dimethylamino-ethyl)-methyl-amino)-4-methoxyl-phenyl)-acrylamide], the GI50 in assay [1] is 1.52 nM.
`C=CC(=O)Nc1cc(Nc2nccc(-n3cnc4ccccc43)n2)c(OC)cc1N(C)CCN(C)C` [Compound 106]: the GI50 in the assay on H2170 (Her2 amp) was 9.4 nM; in the assay on HCC1954 (Her2 amp) it was 375 nM; in the assay with ZR-75-30 (Her2 amp), 12 nM; in the assay on H1993 (Met amp), above 1000 nM; in the assay with MKN-45 (Met amp) it was above 1000 nM; with H2228 (EML4-ALK), above 500 nM. Further, the GI50 with Karpas-299 (NPM-ALK), in the assay with Kasumi-1 (Kit N822K), with H1581 (FGFR1 amp) and in the assay on SNU-16 (FGFR2 amp) was above 1000 nM throughout.
On to `C=CC(=O)Nc1cc(Nc2nccc(Nc3cccc(Cl)c3)n2)c(OC)cc1N(C)CCN(C)C` [Compound 2, N-(5-(4-(3-chloro-phenylamino)-pyrimidin-2-ylamino)-2-(2-(dimethylamino-ethyl)-methyl-amino)-4-methoxyl-phenyl)-acrylamide], for which the GI50 in the assay with H2170 (Her2 amp) was 12.6 nM; in the assay on HCC1954 (Her2 amp), 375 nM; with ZR-75-30 (Her2 amp), 6 nM; in the assay with H1993 (Met amp) it was above 1000 nM; in the assay with MKN-45 (Met amp), above 1000 nM; in the assay with H2228 (EML4-ALK), above 500 nM. The GI50 in the assay with Karpas-299 (NPM-ALK) is 500 nM; in the assay on Kasumi-1 (Kit N822K) it was above 1000 nM; in the assay on H1581 (FGFR1 amp), above 1000 nM; in the assay with SNU-16 (FGFR2 amp), above 1000 nM.
In the case of `C=CC(=O)Nc1cc(Nc2cc(Nc3ccc(F)c(Cl)c3)ncn2)c(OC)cc1N(C)CCN(C)C` [Compound 140, N-(5-(6-(3-chloro-4-fluoro-phenylamino)-pyrimidin-4-ylamino)-2-((2-dimethylamino-ethyl)-methyl-amino)-4-methoxyl-phenyl)-acrylamide], the GI50 in the assay on H2170 (Her2 amp) was 4.8 nM; in the assay on HCC1954 (Her2 amp) it was 26.5 nM; in the assay on ZR-75-30 (Her2 amp), 1.5 nM; in the assay on H1993 (Met amp) it was above 1000 nM; with MKN-45 (Met amp) it was above 1000 nM; in the assay on H2228 (EML4-ALK), above 500 nM. For the same compound, the GI50 in the assay with Karpas-299 (NPM-ALK), in the assay on Kasumi-1 (Kit N822K), in the assay on H1581 (FGFR1 amp) and with SNU-16 (FGFR2 amp) was above 1000 nM in each case.
Take `C=CC(=O)Nc1cc(Nc2ncnc(Nc3cccc(Br)c3)n2)c(OC)cc1N1CCC(N2CCCC2)CC1` [Compound 118]: the GI50 in the assay on H2170 (Her2 amp) is 6.8 nM; with HCC1954 (Her2 amp), 37.5 nM; in the assay on ZR-75-30 (Her2 amp) it was 2.6 nM; in the assay with MKN-45 (Met amp), 465 nM; with H2228 (EML4-ALK), above 500 nM; with Karpas-299 (NPM-ALK) it was 500 nM. Besides, the GI50 with Kasumi-1 (Kit N822K) was below 100 nM; with H1581 (FGFR1 amp), above 1000 nM; with SNU-16 (FGFR2 amp), above 1000 nM.
Consider `C=CC(=O)Nc1cc(Nc2nccc(Nc3ccc(OCc4ccccn4)c(Cl)c3)n2)c(OC)cc1N(C)CCN(C)C` [Compound 18, N-(5-(4-(3-chloro-4-(pyridin-2-methoxyl)phenylamino)pyrimidin-2-ylamino)-2-((2-(dimethylamino)ethyl)(methyl)amino)-4-methoxyl-phenyl)-acrylamide], for which the GI50 with H2170 (Her2 amp) was 19.5 nM; in the assay with HCC1954 (Her2 amp) it was 312 nM; in the assay on ZR-75-30 (Her2 amp), 2.1 nM; with H1993 (Met amp), above 1000 nM; in the assay with MKN-45 (Met amp) it was above 1000 nM; in the assay on H2228 (EML4-ALK), above 500 nM. Also, the GI50 with Karpas-299 (NPM-ALK), in the assay on Kasumi-1 (Kit N822K), in the assay on H1581 (FGFR1 amp) and in the assay with SNU-16 (FGFR2 amp) was above 1000 nM throughout.
As for `C=CC(=O)Nc1cc(Nc2cc(Nc3cc(F)c(OC)c(Cl)c3)ncn2)c(OC)cc1N(C)CCN(C)C` [Compound 236, N-(5-(6-(3-chloro-5-fluoro-4-methoxyphenylamino)-pyrimidin-4-yl-amino)-2-((2-dimethylamino-ethyl)-methyl-amino)-4-methoxyl-phenyl)-acrylamide], the 50% growth inhibitory concentration (GI50) in assay [1] was 0.96 nM.
`C=CC(=O)Nc1cc(Nc2ncnc(Nc3cccc(F)c3)n2)c(OC)cc1N(C)CCN(C)C` [Compound 114, N-(5-(4-(3-fluoro-phenylamino)-[1,3,5]triazin-2-ylamino)-2-((2-dimethylamino-ethyl)-methyl-amino)-4-methoxyl-phenyl)-acrylamide]: the GI50 is 4.8 nM with H2170 (Her2 amp); 37.5 nM in the assay with HCC1954 (Her2 amp); 1.1 nM in the assay on ZR-75-30 (Her2 amp); above 1000 nM with H1993 (Met amp); 465 nM in the assay with MKN-45 (Met amp); above 500 nM with H2228 (EML4-ALK). For the same compound, the GI50 in the assay on Karpas-299 (NPM-ALK) is above 1000 nM; in the assay with Kasumi-1 (Kit N822K), below 100 nM; with H1581 (FGFR1 amp) it was above 1000 nM; with SNU-16 (FGFR2 amp) it was above 1000 nM.
With `C=CC(=O)Nc1cc(Nc2cc(Nc3ccc(F)c(Cl)c3)ncn2)c(OC)cc1N1CCN(C2CCN(C)CC2)CC1` [Compound 147, N-(5-(6-(3-chloro-4-fluoro-phenylamino)-pyrimidin-4-ylamino)-4-methoxyl-2-(4-(1-methylpiperidin-4-yl)-piperazin-1-yl)-phenyl)-acrylamide], the GI50 was 4.8 nM with H2170 (Her2 amp); 26.5 nM with HCC1954 (Her2 amp); 1.5 nM with ZR-75-30 (Her2 amp); above 1000 nM with H1993 (Met amp); above 1000 nM in the assay with MKN-45 (Met amp); above 500 nM in the assay on H2228 (EML4-ALK). In addition, the GI50 with Karpas-299 (NPM-ALK), in the assay with Kasumi-1 (Kit N822K), in the assay with H1581 (FGFR1 amp) and with SNU-16 (FGFR2 amp) was above 1000 nM in each case.
As for `C=CC(=O)Nc1cc(Nc2nccc(-n3ccc4c(OC)cccc43)n2)c(OC)cc1N(C)CCN(C)C` [Compound 99, N-(5-(4-(4-methoxyl-1H-indol-1-yl)-pyrimidin-2-ylamino)-2-(2-(dimethylamino-ethyl)-methyl-amino)-4-methoxyl-phenyl)-acrylamide], the 50% growth inhibitory concentration (GI50) in assay [1] came to 1.92 nM.

These data come from patent US10342796B2, “Acrylanilide derivative, preparation method, and applications thereof in pharmacy” (Ancureall Pharmaceutical (Shanghai) Co., Ltd., priority 2015, dated 2019).
